Tested on: T1, Pseudomonas fluorescens lipase (PFL)
T1 construct: commercial lipase powder (Amano Enzyme Ltd., Nagoya, Japan), used without further treatment; free enzyme
Assay: colorimetric p-nitrophenol release at […] nm; initial rates, linear regression (Lineweaver-Burk)
Type: biochemical
Details: free enzyme; standard assay phosphate buffer pH 7.5, 40 °C, with Triton and acetone

For `CCCC(=O)Oc1ccc([N+](=O)[O-])cc1` [p-nitrophenol butyrate], the Km was 760 µM.

Source: article PMC11207022, “Enhanced Enzymatic Performance of Immobilized Pseudomonas fluorescens Lipase on ZIF-8@ZIF-67 and Its Application to the Synthesis of Neryl Acetate with Transesterification Reaction” (Molecules, 2024)
